Results published in ChEMBL document CHEMBL1201862, “PubChem BioAssay data set” (2004).
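Protocol summary: plate cells (96-well), add compound at 5 concentrations, incubate 48 h, interpolate endpoints linearly. GI50 marks 50% less growth.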 Calls of active or inactive are those of the source. Cut-off read from the data, not from the text of the source: active = GI50 up to about 1.1 µM and inactive = higher.

Experiments:
Assay in all cases: NCI anticancer screen, dose series, 48 h
[1] = tested on: COLO 205
[2] = tested on: HT-29
[3] = tested on: IGROV-1
[4] = tested on: KM12
[5] = tested on: LOX IMVI
[6] = tested on: M14
[7] = tested on: Malme-3M
[8] = tested on: NCI-H23
[9] = tested on: OVCAR-3
[10] = tested on: OVCAR-4
[11] = tested on: RPMI-8226
[12] = tested on: SF-539
[13] = tested on: SK-MEL-5
[14] = tested on: SNB-19
[15] = tested on: SW-620
[16] = tested on: RXF 393
[17] = tested on: SK-MEL-28
[18] = tested on: TK-10
[19] = tested on: UACC-257
[20] = tested on: HCC 2998

| SMILES | GI50 [1] | GI50 [2] | GI50 [3] | GI50 [4] | GI50 [5] | GI50 [6] | GI50 [7] | GI50 [8] | GI50 [9] | GI50 [10] | GI50 [11] | GI50 [12] | GI50 [13] | GI50 [14] | GI50 [15] | GI50 [16] | GI50 [17] | GI50 [18] | GI50 [19] | GI50 [20] |
| --- | --- | --- | --- | --- | --- | --- | --- | --- | --- | --- | --- | --- | --- | --- | --- | --- | --- | --- | --- | --- |
| CCOC(=O)NC(=O)c1cn(CCNCCO)c(=O)[nH]c1=O | > 100 µM (inactive) | > 100 µM (inactive) | > 100 µM (inactive) | > 100 µM (inactive) | > 100 µM (inactive) | > 100 µM (inactive) | > 100 µM (inactive) | > 100 µM (inactive) | > 100 µM (inactive) | > 100 µM (inactive) | > 100 µM (inactive) | > 100 µM (inactive) | > 100 µM (inactive) | 9.23 µM (inactive) | > 100 µM (inactive) | – | – | – | – | – |
| c1nc2nc[nH]c(SSc3[nH]cnc4ncnc3-4)c-2n1 | 0.653 µM (active) | 1.19 µM (inactive) | > 22.3 µM (inactive) | 1.06 µM (active) | < 0.0441 µM (active) | 1.21 µM (inactive) | 0.376 µM (active) | 0.292 µM (active) | < 0.0442 µM (active) | – | – | – | 4.83 µM (inactive) | 47.4 µM (inactive) | 0.824 µM (active) | > 100 µM (inactive) | 61.8 µM (inactive) | < 0.0343 µM (active) | 2.63 µM (inactive) | – |
| Cc1ccc(C(=O)C2CC3(CCC2(O)c2ccc(C)cc2)CC(=O)Nc2ccccc2C3=O)cc1 (stereo not given) | > 100 µM (inactive) | > 100 µM (inactive) | > 100 µM (inactive) | – | > 100 µM (inactive) | 46.5 µM (inactive) | > 100 µM (inactive) | > 100 µM (inactive) | > 100 µM (inactive) | – | – | > 100 µM (inactive) | 6.89 µM (inactive) | 51.6 µM (inactive) | > 100 µM (inactive) | 16.1 µM (inactive) | > 100 µM (inactive) | > 100 µM (inactive) | > 100 µM (inactive) | > 100 µM (inactive) |
| CC(=O)Nc1ccc(C(=O)NN2C(=O)C(Cl)C2/C=C/c2ccccc2)cc1 (stereo not given) | > 100 µM (inactive) | > 100 µM (inactive) | > 100 µM (inactive) | > 100 µM (inactive) | – | – | > 100 µM (inactive) | > 100 µM (inactive) | > 100 µM (inactive) | – | > 100 µM (inactive) | > 100 µM (inactive) | > 100 µM (inactive) | > 100 µM (inactive) | > 100 µM (inactive) | – | > 100 µM (inactive) | > 100 µM (inactive) | > 100 µM (inactive) | > 100 µM (inactive) |
| CC(C)(C)[Si](C)(C)OCCOCn1cc(F)c(=O)[nH]c1=O | > 100 µM (inactive) | > 100 µM (inactive) | > 100 µM (inactive) | > 100 µM (inactive) | > 100 µM (inactive) | > 100 µM (inactive) | > 100 µM (inactive) | > 100 µM (inactive) | > 100 µM (inactive) | > 100 µM (inactive) | > 100 µM (inactive) | > 100 µM (inactive) | > 100 µM (inactive) | > 100 µM (inactive) | > 100 µM (inactive) | > 100 µM (inactive) | – | > 100 µM (inactive) | > 100 µM (inactive) | – |
| COc1ccc(N2C(=O)CSC2c2c[nH]c3ccccc23)cc1 (stereo not given) | 92.7 µM (inactive) | 51.1 µM (inactive) | > 100 µM (inactive) | 28.4 µM (inactive) | 78.9 µM (inactive) | > 100 µM (inactive) | – | 69.7 µM (inactive) | > 100 µM (inactive) | > 100 µM (inactive) | – | – | 88.5 µM (inactive) | > 100 µM (inactive) | > 100 µM (inactive) | > 100 µM (inactive) | > 100 µM (inactive) | 59.8 µM (inactive) | > 100 µM (inactive) | > 100 µM (inactive) |
| S=C(N/N=C(/c1ccccc1)c1ccccn1)Nc1cccc(Cl)c1 | < 0.0315 µM (active) | – | – | 0.414 µM (active) | – | 0.0596 µM (active) | 0.119 µM (active) | 1.04 µM (active) | – | 0.0524 µM (active) | < 0.0385 µM (active) | 1.48 µM (inactive) | 0.185 µM (active) | 3.01 µM (inactive) | < 0.0385 µM (active) | 1.08 µM (active) | 1.01 µM (active) | 0.714 µM (active) | < 0.0475 µM (active) | 0.748 µM (active) |
| O=C1CC(=O)N(c2ccccc2)N1/C(=C/c1ccccc1)c1ccccc1 | 19.8 µM (inactive) | 20 µM (inactive) | 15.8 µM (inactive) | 25.6 µM (inactive) | 1.6 µM (inactive) | 19 µM (inactive) | – | 23.2 µM (inactive) | 20.3 µM (inactive) | 20.5 µM (inactive) | 10.2 µM (inactive) | – | 14.5 µM (inactive) | 19.6 µM (inactive) | 17.3 µM (inactive) | 16.7 µM (inactive) | 12.3 µM (inactive) | 21.3 µM (inactive) | 24.8 µM (inactive) | 20.1 µM (inactive) |
| CCSc1nc(N)c2c(-c3ccccc3)c3c(nc2n1)CCC3 | > 100 µM (inactive) | – | > 100 µM (inactive) | > 100 µM (inactive) | > 100 µM (inactive) | > 100 µM (inactive) | > 100 µM (inactive) | > 100 µM (inactive) | > 100 µM (inactive) | > 100 µM (inactive) | > 100 µM (inactive) | 6.53 µM (inactive) | > 100 µM (inactive) | > 100 µM (inactive) | > 100 µM (inactive) | > 100 µM (inactive) | > 100 µM (inactive) | > 100 µM (inactive) | > 100 µM (inactive) | – |
| N=C(N)NS(=O)(=O)c1ccc(Nc2c3ccccc3nc3c(C(=O)N4CCN(CCO)CC4)ccc(Cl)c23)cc1 | > 100 µM (inactive) | > 100 µM (inactive) | > 100 µM (inactive) | > 100 µM (inactive) | – | > 100 µM (inactive) | > 100 µM (inactive) | > 100 µM (inactive) | > 100 µM (inactive) | > 100 µM (inactive) | > 100 µM (inactive) | > 100 µM (inactive) | > 100 µM (inactive) | > 100 µM (inactive) | – | > 100 µM (inactive) | > 100 µM (inactive) | > 100 µM (inactive) | > 100 µM (inactive) | > 100 µM (inactive) |
| CC(C)(Br)C(Br)CCC(C)(Br)C(Br)CO (stereo not given) | > 10 µM (inactive) | > 10 µM (inactive) | > 10 µM (inactive) | – | – | > 10 µM (inactive) | > 10 µM (inactive) | > 10 µM (inactive) | > 10 µM (inactive) | > 10 µM (inactive) | > 10 µM (inactive) | > 10 µM (inactive) | > 10 µM (inactive) | > 10 µM (inactive) | > 10 µM (inactive) | > 10 µM (inactive) | > 10 µM (inactive) | – | > 10 µM (inactive) | > 10 µM (inactive) |
| COc1ccc(-c2c(C#N)c(N)nc3c2CCS(=O)(=O)c2ccccc2-3)cc1 | > 100 µM (inactive) | > 100 µM (inactive) | > 100 µM (inactive) | > 100 µM (inactive) | > 100 µM (inactive) | – | 44.3 µM (inactive) | > 100 µM (inactive) | – | > 100 µM (inactive) | – | – | > 100 µM (inactive) | > 100 µM (inactive) | > 100 µM (inactive) | – | > 100 µM (inactive) | > 100 µM (inactive) | > 100 µM (inactive) | > 100 µM (inactive) |
| Cc1cnc(SCCN2CCN(C)CC2)nc1-c1cc2ccccc2s1 | 14.3 µM (inactive) | 6.03 µM (inactive) | > 10 µM (inactive) | 16.3 µM (inactive) | 5.09 µM (inactive) | 13.2 µM (inactive) | 17 µM (inactive) | 16.3 µM (inactive) | 5.98 µM (inactive) | 16.7 µM (inactive) | – | 12.6 µM (inactive) | 3.46 µM (inactive) | – | 11.9 µM (inactive) | 10.1 µM (inactive) | 16.2 µM (inactive) | 17.4 µM (inactive) | 10.3 µM (inactive) | 13.3 µM (inactive) |
| COc1ccccc1NC(=O)/C(Cc1nc2ccc([N+](=O)[O-])cc2nc1O)=N\NC(=O)C[N+](C)(C)C | 37.2 µM (inactive) | 30.5 µM (inactive) | 55.3 µM (inactive) | 31.8 µM (inactive) | > 100 µM (inactive) | 57.1 µM (inactive) | – | > 100 µM (inactive) | 41.7 µM (inactive) | > 100 µM (inactive) | – | 49.5 µM (inactive) | 26.4 µM (inactive) | > 100 µM (inactive) | 48 µM (inactive) | > 100 µM (inactive) | > 100 µM (inactive) | > 100 µM (inactive) | > 100 µM (inactive) | 29.6 µM (inactive) |
| Cc1cccc(C)c1NC(=S)N/C=C(\C#N)C(N)=O | > 100 µM (inactive) | > 100 µM (inactive) | > 100 µM (inactive) | > 100 µM (inactive) | > 100 µM (inactive) | > 100 µM (inactive) | > 100 µM (inactive) | > 100 µM (inactive) | > 100 µM (inactive) | > 100 µM (inactive) | > 100 µM (inactive) | > 100 µM (inactive) | > 100 µM (inactive) | > 100 µM (inactive) | > 100 µM (inactive) | > 100 µM (inactive) | > 100 µM (inactive) | > 100 µM (inactive) | > 100 µM (inactive) | – |
| O1C2C1C1OC1C1OC1C1OC21 (stereo not given) | > 100 µM (inactive) | > 100 µM (inactive) | – | > 100 µM (inactive) | > 100 µM (inactive) | > 100 µM (inactive) | > 100 µM (inactive) | > 100 µM (inactive) | – | > 100 µM (inactive) | – | – | > 100 µM (inactive) | > 100 µM (inactive) | – | – | > 100 µM (inactive) | > 100 µM (inactive) | > 100 µM (inactive) | > 100 µM (inactive) |
